This note sets out measurements from ChEMBL document CHEMBL2203182, “Identification of benzoylisoquinolines as potential anti-Chagas agents” (2012).

Test [1] deals with Trypanosoma cruzi. Nature of the test: Antitrypanosomal activity against bloodstream trypomastigote form of Trypanosoma cruzi NINOA isolated from infected mouse at the peak of parasitemia assessed as reduction in number of live parasites at 5 to 50 ug/ml after 24 hrs. The format is functional, organism-based.
Test [2] relates to Trypanosoma cruzi. Nature of the test: Antitrypanosomal activity against bloodstream trypomastigote form of Trypanosoma cruzi NINOA isolated from infected mouse at the peak of parasitemia assessed as reduction in number of live parasites at 161 uM after 24 hrs. The format is functional. Also on record: scale not given: the % may be the effect or the level left.
For test [3], the system named is Trypanosoma cruzi. Nature of the test: Antitrypanosomal activity against bloodstream trypomastigote form of Trypanosoma cruzi NINOA isolated from infected mouse at the peak of parasitemia assessed as reduction in number of live parasites at 18 to 36 uM after 24 hrs. The format is functional, organism-based.
In test [4] the test system is Trypanosoma cruzi. Kind of test: Antitrypanosomal activity against bloodstream trypomastigote form of Trypanosoma cruzi NINOA isolated from infected mouse at the peak of parasitemia assessed as reduction in number of live parasites at 178 uM after 24 hrs. The class given is functional, organism-based.
The test system of test [5] is Trypanosoma cruzi. Nature of the test: Antitrypanosomal activity against bloodstream trypomastigote form of Trypanosoma cruzi NINOA isolated from infected mouse at the peak of parasitemia assessed as reduction in number of live parasites at 5 to 50 ug/ml after 24 hrs.

Molecules are shown by their SMILES. Calls of active or inactive are those of the source. The rule behind the calls is not given here.

On to `O=C(c1ccccc1)c1[nH]c(=O)c2ccccc2c1O`, for which, in the test on Trypanosoma cruzi [1], the result was inactive.

On to `O=C(c1cccc([N+](=O)[O-])c1)c1[nH]c(=O)c2ccccc2c1O`, for which the Activity with Trypanosoma cruzi [2] is 47%.

As for `Nc1cccc(C(=O)c2[nH]c(=O)c3ccccc3c2O)c1`, the result in the test on Trypanosoma cruzi [3] and with Trypanosoma cruzi [5] was Active. In addition, the result in the test on Trypanosoma cruzi [4] was inactive.

Regarding `O=C(Cn1ccnc1[N+](=O)[O-])NCc1ccccc1`, the outcome with Trypanosoma cruzi [5] was Active.
